From US20140135310A1, “SULPHONAMIDE DERIVATIVES OF ALICYCLIC AMINES FOR THE TREATMENT OF CENTRAL NERVOUS SYSTEM DISEASES” (Adamed Sp. z o.o., priority 2011, published 2014)

Assays:
[1] = molecular target: dopaminergic receptors D2 (Homo sapiens, UniProt P14416); assay: Radioligand binding assay, dopaminergic D2 receptors; conditions: for inhibition at 1 µM: binding assay, test compound 1×10^−6 M; for Ki: read-out: Inhibition constants Ki for D2 receptors, D2
In short: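 Ki from Cheng–Prusoff conversion of Hill-fitted IC50 values, using the assay radioligand concentration and a Scatchard-determined KD. Specific binding, scintillation-counted, excluded signal remaining under excess unlabelled ligand.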

[2] = molecular target: T1, receptors D4.4 (Homo sapiens, UniProt P21917); assay: Radioligand binding assay, dopaminergic D4 (D4.4) receptors; conditions: test compound 1×10^−6 M
T1 sequence (P21917 1-419): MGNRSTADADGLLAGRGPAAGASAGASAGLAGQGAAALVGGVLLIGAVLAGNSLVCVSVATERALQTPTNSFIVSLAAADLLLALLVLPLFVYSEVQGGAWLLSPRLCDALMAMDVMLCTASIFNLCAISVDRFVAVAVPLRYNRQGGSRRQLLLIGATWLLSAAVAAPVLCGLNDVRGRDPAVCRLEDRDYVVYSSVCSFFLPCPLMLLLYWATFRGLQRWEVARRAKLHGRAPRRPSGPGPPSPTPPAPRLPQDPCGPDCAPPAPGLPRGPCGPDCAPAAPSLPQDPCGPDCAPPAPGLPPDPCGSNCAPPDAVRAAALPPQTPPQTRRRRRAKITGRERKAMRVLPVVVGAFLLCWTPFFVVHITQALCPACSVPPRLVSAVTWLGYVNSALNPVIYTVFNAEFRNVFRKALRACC
In short: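 Scintillation read-out. Specific = total − nonspecific (excess cold ligand). Data as % of control specific binding / % inhibition; IC50 by Hill fit; Ki = IC50/(1+L/KD), KD from Scatchard plot.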

[3] = molecular target: T2, 5-HT2A receptor (Homo sapiens, UniProt P28223); assay: Radioligand binding assay, serotoninergic 5-HT2A receptors; conditions: for inhibition at 1 µM: binding assay result in %, Table 5a; for Ki: read-out: Inhibition constants Ki, 5-HT2A
T2 construct: purchased PerkinElmer
In short: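 Competition curves from scintillation-counted specific binding (total minus binding with excess unlabelled ligand) were Hill-fitted to give IC50, converted to Ki via Cheng-Prusoff using Scatchard-derived Kd.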

[4] = tested on: α1 adrenergic receptors (rat cerebral cortex); assay: Radioligand binding assay, adrenergic α1 receptors; conditions: test compound 1×10^−6 M
In short: (§1)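 Values derive from radioligand displacement, with non-specific binding defined by excess cold ligand and detection by scintillation. Hill-fit IC50s were converted to Ki via Cheng-Prusoff using Scatchard-derived Kd; percent inhibition of control specific binding also reported.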

[5] = molecular target: T3, α2C adrenergic receptors (Homo sapiens, UniProt P18825); assay: Radioligand binding assay, adrenergic α2C receptors; conditions: test compound 1×10^−6 M
T3 construct: expressed in transfected cells; host or cells: CHO cells
T3 sequence (P18825 1-462): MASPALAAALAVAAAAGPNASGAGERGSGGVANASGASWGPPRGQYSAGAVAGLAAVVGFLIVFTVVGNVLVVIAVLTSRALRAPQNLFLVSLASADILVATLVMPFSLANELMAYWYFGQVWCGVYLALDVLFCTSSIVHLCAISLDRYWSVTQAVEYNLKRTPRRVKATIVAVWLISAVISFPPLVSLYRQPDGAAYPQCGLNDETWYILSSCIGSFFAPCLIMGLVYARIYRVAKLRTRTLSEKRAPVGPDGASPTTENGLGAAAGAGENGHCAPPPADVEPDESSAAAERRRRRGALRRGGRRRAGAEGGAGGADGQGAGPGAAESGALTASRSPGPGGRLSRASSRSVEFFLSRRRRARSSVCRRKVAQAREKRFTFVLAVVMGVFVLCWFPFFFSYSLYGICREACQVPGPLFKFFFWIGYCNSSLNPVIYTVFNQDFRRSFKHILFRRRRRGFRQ
In short: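 Competitive radioligand binding at human α2C receptors, with scintillation counting. Nonspecific binding defined with excess unlabelled ligand; results given as % inhibition of control specific binding. IC50 from Hill-equation fits of competition curves; Ki via Cheng-Prusoff using radioligand concentration and Scatchard-derived KD.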

[6] = molecular target: T4, M3 muscarinic receptors (Homo sapiens, UniProt P20309); assay: Radioligand binding assay, muscarinic M3 receptors; conditions: test compound 1×10^−6 M
T4 construct: expressed in transfected cells; host or cells: CHO cells
In short: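 Radioligand competition binding, detected by scintillation counting; non-specific binding defined with excess unlabelled ligand. Results given as % inhibition of control specific binding; IC50 from Hill-equation fit of competition curves, Ki via Cheng-Prusoff with radioligand KD from Scatchard plot.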

[7] = molecular target: T5, serotonin transporter (SERT) (Homo sapiens, UniProt P31645); assay: Radioligand binding assay, serotonin transporter (SERT); conditions: for inhibition at 1 µM: binding assay, test compound 1×10^−6 M; for Ki: read-out: Inhibition constants Ki for SERT, SERT
T5 construct: expressed in transfected cells; host or cells: CHO cells
In short: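 Values are derived from competition curves fitted by the Hill equation to give IC50, then converted to Ki by Cheng-Prusoff with radioligand Kd from Scatchard analysis. Specific binding equals total minus non-specific (excess cold ligand), counted by scintillation, and is also expressed as percent inhibition of control.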

[8] = molecular target: T6, H1 histaminergic receptors (Homo sapiens, UniProt P35367); assay: Radioligand binding assay, histaminergic H1 receptors; conditions: human recombinant (HEK-293 cells), [3H]pyrilamine 1 nM
T6 construct: expressed in transfected cells; host or cells: HEK-293 cells
In short: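 Competition binding at human H1 receptors; specific binding taken as total minus non-specific binding in excess unlabelled ligand, scintillation read-out. IC50 from Hill-equation fit of competition curves; Ki by Cheng-Prusoff using radioligand concentration and Kd (from Scatchard plot).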

[9] = tested on: σ receptors; assay: Radioligand binding assay, σ receptors; conditions: rat cerebral cortex, [3H]DTG 8 nM
In short: as §1

T5 sequence (P31645 whole entry): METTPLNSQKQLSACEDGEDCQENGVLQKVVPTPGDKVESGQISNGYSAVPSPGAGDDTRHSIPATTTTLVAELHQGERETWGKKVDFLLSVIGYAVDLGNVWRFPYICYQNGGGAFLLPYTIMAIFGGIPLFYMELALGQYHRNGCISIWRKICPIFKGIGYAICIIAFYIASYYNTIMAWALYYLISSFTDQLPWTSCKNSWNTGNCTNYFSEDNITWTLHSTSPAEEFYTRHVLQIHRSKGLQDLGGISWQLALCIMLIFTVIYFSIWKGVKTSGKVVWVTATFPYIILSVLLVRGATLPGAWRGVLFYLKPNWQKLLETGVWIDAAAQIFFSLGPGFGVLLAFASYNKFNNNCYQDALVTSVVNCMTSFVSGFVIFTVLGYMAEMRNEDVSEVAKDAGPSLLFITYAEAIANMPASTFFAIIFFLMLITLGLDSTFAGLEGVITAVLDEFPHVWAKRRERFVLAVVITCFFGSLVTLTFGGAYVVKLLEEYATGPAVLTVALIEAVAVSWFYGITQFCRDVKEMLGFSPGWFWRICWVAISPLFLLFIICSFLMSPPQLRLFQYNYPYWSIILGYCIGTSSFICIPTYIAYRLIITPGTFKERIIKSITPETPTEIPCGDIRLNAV
T6 sequence (P35367 whole entry): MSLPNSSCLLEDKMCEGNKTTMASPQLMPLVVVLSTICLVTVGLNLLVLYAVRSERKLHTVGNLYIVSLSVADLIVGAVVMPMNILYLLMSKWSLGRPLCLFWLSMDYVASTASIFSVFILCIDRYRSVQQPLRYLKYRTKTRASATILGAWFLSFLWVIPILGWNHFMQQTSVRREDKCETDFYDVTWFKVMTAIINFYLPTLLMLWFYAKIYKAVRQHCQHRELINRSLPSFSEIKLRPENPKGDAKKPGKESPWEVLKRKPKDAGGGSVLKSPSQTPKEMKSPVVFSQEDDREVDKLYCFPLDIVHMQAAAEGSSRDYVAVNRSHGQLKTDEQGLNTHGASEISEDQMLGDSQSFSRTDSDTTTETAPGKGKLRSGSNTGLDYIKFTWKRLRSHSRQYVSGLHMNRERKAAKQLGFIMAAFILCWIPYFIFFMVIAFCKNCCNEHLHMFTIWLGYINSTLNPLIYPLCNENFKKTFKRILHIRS
T2 sequence (P28223 whole entry): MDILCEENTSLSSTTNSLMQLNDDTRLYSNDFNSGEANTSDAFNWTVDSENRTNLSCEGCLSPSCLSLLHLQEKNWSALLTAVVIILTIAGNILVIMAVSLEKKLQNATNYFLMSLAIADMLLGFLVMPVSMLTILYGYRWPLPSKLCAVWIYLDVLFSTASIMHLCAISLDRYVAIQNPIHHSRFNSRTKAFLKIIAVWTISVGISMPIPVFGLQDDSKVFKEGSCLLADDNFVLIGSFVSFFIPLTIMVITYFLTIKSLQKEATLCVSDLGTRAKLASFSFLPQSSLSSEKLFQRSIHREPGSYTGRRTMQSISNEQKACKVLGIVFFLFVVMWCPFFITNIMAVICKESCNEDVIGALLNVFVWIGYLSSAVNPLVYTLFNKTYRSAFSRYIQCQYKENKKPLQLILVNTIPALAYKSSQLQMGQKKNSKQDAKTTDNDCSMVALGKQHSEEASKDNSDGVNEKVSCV
T4 sequence (P20309 whole entry): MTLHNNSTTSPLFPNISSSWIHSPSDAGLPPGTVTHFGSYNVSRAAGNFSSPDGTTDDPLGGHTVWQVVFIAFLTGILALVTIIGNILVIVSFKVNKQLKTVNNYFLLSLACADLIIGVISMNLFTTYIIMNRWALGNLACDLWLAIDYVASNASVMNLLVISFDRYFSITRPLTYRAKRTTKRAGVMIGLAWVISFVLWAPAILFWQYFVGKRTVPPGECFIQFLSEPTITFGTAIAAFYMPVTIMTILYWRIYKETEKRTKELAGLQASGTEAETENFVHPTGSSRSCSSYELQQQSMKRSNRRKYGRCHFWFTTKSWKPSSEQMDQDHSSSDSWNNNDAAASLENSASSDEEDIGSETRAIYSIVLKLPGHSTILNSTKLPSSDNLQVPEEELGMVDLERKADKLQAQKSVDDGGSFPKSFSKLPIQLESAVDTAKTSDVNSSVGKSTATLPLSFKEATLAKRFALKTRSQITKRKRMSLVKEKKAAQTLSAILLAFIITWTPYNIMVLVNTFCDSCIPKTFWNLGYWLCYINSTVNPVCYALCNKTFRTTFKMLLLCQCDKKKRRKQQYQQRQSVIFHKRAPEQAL
dopaminergic receptors D2, sequence (P14416 whole entry): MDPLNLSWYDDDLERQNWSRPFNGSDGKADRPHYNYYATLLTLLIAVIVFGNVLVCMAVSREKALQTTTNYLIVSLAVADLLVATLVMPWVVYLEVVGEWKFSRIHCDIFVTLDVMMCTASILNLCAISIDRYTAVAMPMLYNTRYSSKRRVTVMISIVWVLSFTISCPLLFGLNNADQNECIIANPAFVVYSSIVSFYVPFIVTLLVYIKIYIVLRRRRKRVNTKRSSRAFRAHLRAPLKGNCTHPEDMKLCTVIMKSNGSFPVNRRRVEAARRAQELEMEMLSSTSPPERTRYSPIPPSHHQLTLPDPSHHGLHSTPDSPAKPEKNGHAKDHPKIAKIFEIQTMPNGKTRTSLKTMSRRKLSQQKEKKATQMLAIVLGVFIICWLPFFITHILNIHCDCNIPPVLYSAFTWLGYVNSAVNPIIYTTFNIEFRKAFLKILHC

Compound | inhibition at 1 µM [1] | inhibition at 1 µM [2] | inhibition at 1 µM [3] | α1 [%] [4] | inhibition at 1 µM [5] | inhibition at 1 µM [6] | inhibition at 1 µM [7] | inhibition at 1 µM [8] | σ [%] [9] | Ki [7] | Ki [1] | Ki [3]
O=S(=O)(NCC1CN(CCCc2noc3cc(F)ccc23)C1)c1ccc2scnc2c1 [Compound 132, N-[[1-[3-(6-Fluoro-1,2-benzoxazol-3-yl)propyl]azetidin-3-yl]methyl]-1,3-benzothiazole-5-sulphonamide] | 82% | 39% | 97% | 86% | 73% | 10% | 20% | 33% | 80% |  |  | 
O=S(=O)(NCC1CN(CCOc2cccc3ccccc23)C1)c1ccc2ccccc2c1 [Compound 122, N-[[1-[2-(1-Naphthyloxy)ethyl]azetidin-3-yl]methyl]naphthalene-2-sulphonamide] | 99% | 63% | 83% | 53% | 101% | 30% | 98% |  | 81% | 17 nM |  | 
CC1(C)Cc2cccc(OCCN3CCC(NS(=O)(=O)c4cccc(O)c4)C3)c2O1 (stereo not shown) [Compound 107, N-[1-[2-[(2,2-Dimethyl-3H-benzofuran-7-yl)oxy]ethyl]pyrrolidin-3-yl]-3-hydroxybenzenesulphonamide] | 89% | 83% | 97% | 28% | 77% | 8% | -4% | 30% | 47% |  |  | 
Cc1cccc(S(=O)(=O)NC2CCN(CCCc3c[nH]c4ccc(Cl)cc34)C2)c1 (stereo not shown) [Compound 86, N-[1-[3-(5-chloro-1H-indol-3-yl)propyl]pyrrolidin-3-yl]-3-methyl-benzenesulphonamide] | 93% | 88% | 97% | 50% | 106% | 1% | 105% | 70% | 65% | 1.1 nM |  | 
Cc1c(S(=O)(=O)NCC2CN(CCCc3noc4cc(F)ccc34)C2)sc2ccc(Cl)cc12 [Compound 131, 5-Chloro-N-[[1-[3-(6-fluoro-1,2-benzoxazol-3-yl)propyl]azetidin-3-yl]-methyl]-3-methyl-benzothiophene-2-sulphonamide] | 97% | 50% | 99% | 70% | 92% | 17% | 55% | 51% | 92% |  | 19 nM | 5.5 nM
Cc1c(S(=O)(=O)NCC2CN(CCCc3noc4cc(F)ccc34)C2)sc2ccc(F)cc12 [Compound 130, 5-Fluoro-N-[[1-[3-(6-fluoro-1,2-benzoxazol-3-yl)propyl]azetidin-3-yl]methyl]-3-methyl-benzothiophene-2-sulphonamide] | 97% | 67% | 100% | 86% | 88% | 15% | 64% | 51% | 94% |  | 10 nM | 4.2 nM
CC1(C)Cc2cccc(OCCN3CCC(NS(=O)(=O)c4ccc5ccccc5c4)C3)c2O1 (stereo not shown) [Compound 108, N-[1-[2-[(2,2-Dimethyl-3H-benzofuran-7-yl)oxy]ethyl]pyrrolidin-3-yl]naphthalene-2-sulphonamide] | 93% | 85% | 98% | 40% | 83% | -4% | 36% | 23% | 45% |  |  | 
O=S(=O)(NC1CCN(CCOc2cccc3ccccc23)C1)c1ccc2ccccc2c1 (stereo not shown) [Compound 116, N-[1-[2-(1-Naphthyloxy)ethyl]pyrrolidin-3-yl]naphthalene-2-sulphonamide] | 91% | 64% | 96% | 23% | 93% | 9% | 95% |  | 56% | 31 nM |  | 
O=S(=O)(NCC1CCN(CCOc2cccc3ccccc23)C1)c1ccc2ccccc2c1 (stereo not shown) [Compound 124, N-[[1-[2-(1-Naphthyloxy)ethyl]pyrrolidin-3-yl]methyl]naphthalene-2-sulphonamide] | 94% | 54% | 87% | 33% | 95% | 49% | 100% |  | 82% |  |  | 
O=S(=O)(NCC1CN(CCCc2noc3cc(F)ccc23)C1)c1ccc2ccccc2c1 [Compound 134, N-[[1-[3-(6-Fluoro-1,2-benzoxazol-3-yl)propyl]azetidin-3-yl]methyl]-naphthalene-2-sulphonamide] | 96% | 77% | 99% | 61% | 87% | 34% | 47% | 45% | 88% |  |  | 
O=S(=O)(NCC1CN(CCCc2noc3cc(F)ccc23)C1)c1cccc2ccccc12 [Compound 133, N-[[1-[3-(6-Fluoro-1,2-benzoxazol-3-yl)propyl]azetidin-3-yl]methyl]-naphthalene-1-sulphonamide] | 93% | 88% | 95% | 90% | 91% | 17% | 42% | 58% | 93% |  |  | 
